Assay [1] deals with SHHF rats. The experiment in a line: Chronic treatment: body weight and food consumption in SHHF rats. Particulars: 20 mg/kg/d. It is filed as in vivo, rat. The procedure: (§1) Male SHHF rats (spontaneously hypertensive, heart failure) aged 12 weeks were used for this study (Charles River breeding centre, L'Arbresle, France).
(§2) Compound 1 was administered in the drinking water for 12 weeks at a dose of 20 mg/kg/d (n=17). Water consumption was regularly measured to adjust the concentration of compound 1. Non-treated control SHHF rats had access to normal water (n=10).
(§3) Body weight, water and food intake were measured every day. After a treatment time of 12 weeks, blood samples were taken. Three days later, arterial pressure and heart rate were recorded and a glucose tolerance test was performed.

Assay [2] deals with SHHF rats. Description: Chronic treatment: glucose tolerance test (IVGTT) in SHHF rats. It is filed as in vivo, rat. To be noted: 20 mg/kg/d, 12 weeks; glucose 0.5 g/kg i.v.; control 710±37. The procedure:
At the end of treatment, the SHHF rats were anesthetized with sodium pentobarbital (50 mg/kg i.p.) after a fasting time of 18 h. The left femoral vein was catheterized to take blood samples for the different dosages. To perform the glucose tolerance test a solution of glucose (0.5 g/kg, i.v.) was administered and the plasma concentrations of glucose were determined after 3, 6, 10, 15, 30 and 45 minutes.
as §1, §2
A glucose solution of 0.5 g/kg was administered via intravenous route. The plasma concentration of glucose was evaluated using a glucometer before injection into animals that had fasted 18 h, and then 3, 6, 10, 15, 30 and 45 min after administration of the glucose (Accu Check Go, Roche Diagnostics, Meylan, France). Area under curve values (AUC) were then determined to compare the groups.

The subject of assay [3] is SHHF rats. The experiment in a line: Chronic treatment: arterial pressure and heart rate in SHHF rats. It is filed as in vivo, rat. To be noted: 20 mg/kg/d in drinking water, 12 weeks. The procedure: as §1
The animals were placed in a room with controlled temperature and light, had free access to tap water and were fed a standard diet (A04, SAFE, Augy, France). This study was conducted in agreement with institutional recommendations and the rules laid down by the European Community for the use of experimental animals (L358-86/609/EEC).
as §2
Body weight, water and food intake were measured every day. […] Three days later, arterial pressure and heart rate were recorded and a glucose tolerance test was performed.
The rats were anesthetized with pentobarbital 50 mg/kg, i.p. (Céa santé animale, Libourne, France) and tracheotomized. […] Arterial pressure was recorded after stabilization with a pressure transducer (Gould P23XL) and recorder (Gould Electronics BS 272, Longjumeau, France). Mean arterial pressure (MAP) was calculated as diastolic pressure plus one third of differential arterial pressure. Heart rate was also recorded from the pressure signal using a Gould Biotach amplifier (model 13-4615-66).

Assay [4] deals with 3T3-L1 adipocytes. The experiment in a line: Secretion of adiponectin by differentiated 3T3-L1 adipocytes (ELISA). It is filed as cell-based, murine. Particulars: 3 μmol/l, 6 h; control 212.6±19.1. How it is done: 3T3-L1 murine preadipocytes were cultured to confluence at 37° C. in DMEM medium containing 4.5 g/litre of D-glucose, 10% FCS and antibiotics. At confluence, differentiation of the 3T3-L1 adipocytes was initiated through the addition over 48 h of a mixture containing 100 μM methyl-isobutylxanthine, 100 nm dexamethasone and 175 nM insulin. The cells were then passaged every 2-3 days in DMEM, 10% FCS and 175 nM insulin. More than 95% of cells had the phenotype of mature adipocytes 10 days after confluence was reached.
To determine the secretion of adiponectin by mature adipocytes, differentiated 3T3-L1 adipocytes (10 days after confluence) were placed in culture in 12-well plates and washed three times with DMEM, then cultured for 6 h in DMEM alone, in the absence or presence of 3 μM of compound 1. In some wells the antagonist selective for the imidazoline receptors I1, efaroxan, was added (100 μM) 30 min before exposure to compound 1.
The culture medium was then recovered, centrifuged for 3 min at 10 000 g to remove cell contaminants, and the supernatant was stored at −80° C. until use. After two washings in cold PBS, the adipocytes were collected in PBS, homogenized and stored at −80° C. An aliquot of adipocyte homogenate was stored for protein determination. The adiponectin was measured using an ELISA kit following the manufacturer's recommendations. The adiponectin concentration was normalized with the cell protein content.
(An ELISA detects its analyte on a solid surface through an enzyme-linked reagent.)

Assay [5] deals with different receptors, transporters and enzymes. Description: Specific binding assay on different receptors, transporters and enzymes. Particulars: assayed at 10^−7 M and 10^−5 M. The procedure:
Compound 1 was assayed at two concentrations 10^−7 (1.0E-07) M and […] (1.0E-05) on different receptors, transporters and enzymes using the techniques described in the literature and adapted for the laboratory.

The test system of assay [6] is SHHF rats. The experiment in a line: Chronic treatment: plasma biochemical parameters in SHHF rats. Format: in vivo, rat. To be noted: 20 mg/kg/d, 12 weeks. How it is done: as §1, §2, §3
After a treatment time of 12 weeks, blood samples were obtained from the caudal vein of anesthetized rats (2.5% isoflurane, Abbott, Rungis, France) after a fasting time of 18 h.
The blood were centrifuged for 15 minutes at 2000 g and the plasma was frozen to −80° C. until assays of glucose, total cholesterol, HDL and LDL cholesterol and fatty acids. These assays were performed at the following centre: Plateau Technique Biologique des Hôpitaux Universitaires de Strasbourg (Advia 2400, Bayer HealthCare).
Insulin, leptin, adiponectin and glucagon were assayed using ELISA kits (insulin: Mercodia, Uppsala, Sweden; leptin: Yanaihara Institute Inc., Shizuoka, Japan; adiponectin: B-Bridge International, Mountain View, USA; glucagon: Gentaur, Kampenhout, Belgium) following the supplier's recommendations.

Consider `Cc1c(Cl)cccc1NC1=NCC(C)C1.Cl` (stereo not drawn) [Compound 1, (3-Chloro-2-methyl-phenyl)-(4-methyl-4,5-dihydro-3H-pyrrol-2-yl)-amine hydrochloride], for which the body weight result in assay [1] (after 9 weeks until end of treatment) was “lower body weight than the controls”. In addition, in assay [1] (after one week's treatment), the food consumption entry is recorded as “below that of the controls”. The “AUC after the glucose tolerance test” value in assay [2] is 556 ± 20 mmol·min/L. In assay [3] (control 176±6), this compound yielded an arterial pressure of 153±7 mmHg. The compound also showed a heart rate in assay [3] (control 361±8) of 367±6 bpm. Further, in assay [4], the secretion of adiponectin was 378±38 ng/ml/mg of proteins. In addition, the “affinity for more than 50 receptors, transporters and enzymes” value in assay [5] (hydrochloride) is “does not exhibit any affinity similar to the affinity for the imidazoline receptor I1”; in assay [5] (listed as compound 1, hydrochloride) it was “does not bind to any of the assayed receptors, transporters and enzymes with affinity similar”. Also, the fasting glycaemia result in assay [6] is given as “not affected”. For the same compound, the free fatty acids entry in assay [6] was “not affected”. This compound also had a total plasma cholesterol in assay [6] (fasting 18 h, control 3.8±0.18) of 2.7 ± 0.09 mmol/L. Besides, the plasma triglycerides in assay [6] (fasting 18 h, control 4.59±0.23) turned out to be 3.8 ± 0.25 mmol/L. Moreover, in assay [6] (control 5.54±0.14), the plasma adiponectin came out at 10.6 ± 0.52 µg/mL. In assay [6] (control 46.8±3.7), this compound displayed a fasting plasma insulin of 15.2 ± 2 ng/mL. The HOMA-IR index in assay [6] (control 534±38) was 110±14.

The record behind these values is patent US9303019B2, “Amino-pyrroline derivatives, and use thereof in the prevention and/or treatment of metabolic syndrome” (UNIVERSITE DE STRASBOURG, priority 2012, dated 2016).
